Measured values: doi:10.1101/2024.10.14.618121v2 (biorxiv, 2025)

Assays:
[1] = target: T1, DENV3 NS5 MTase (dengue virus type 3, UniProt V9TQY8); experiment: fluorescence polarization displacement of F-GTP; format: binding
T1 sequence (V9TQY8 2491-2753): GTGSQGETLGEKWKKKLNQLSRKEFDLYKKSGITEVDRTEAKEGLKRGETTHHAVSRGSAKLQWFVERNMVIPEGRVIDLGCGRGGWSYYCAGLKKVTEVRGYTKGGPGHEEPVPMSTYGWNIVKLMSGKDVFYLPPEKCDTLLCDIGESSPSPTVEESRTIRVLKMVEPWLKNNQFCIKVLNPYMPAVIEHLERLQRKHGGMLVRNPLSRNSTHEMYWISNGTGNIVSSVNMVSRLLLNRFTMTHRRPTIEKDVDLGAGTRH

[2] = target: T1, DENV3 NS5 MTase; experiment: fluorescence polarization displacement of F-GTP; format: binding; remark: listed apart in the source

SMILES: O=c1c(O)c(-c2ccc(O)cc2)oc2c(O)c(O)cc(O)c12 [HC, herbacetin]
- Ki [1]: ~430 nM
- IC50 [2]: 770 ± 10 nM
